These results are taken from US4971982A, “Benzopyran derivatives” (Hoffmann-La Roche Inc., priority 1987, dated 1990).

In this assay the test system is potassium channel. Nature of the assay: potassium channel activating activity: reduction of potassium chloride-induced contractions of rat hepatic portal veins. Particulars: isolated hepatic portal veins, male Sprague-Dawley rats; Krebs solution, 37° C.; further 20 mmol of potassium chloride; isometric tension; read-out: IC50 (concentration of test substance producing a half-maximal reduction of the contractions caused by the potassium chloride). As to the method:
Hepatic portal veins are removed from male Sprague-Dawley rats and suspended in organ baths under an initial tension of 0.5 g for the isometric recording of tension. The veins are incubated in Krebs solution (consisting of 118 mM of sodium chloride, 25 mM of sodium hydrogen carbonate, 10.5 mM of D-glucose, 4.7 mM of potassium chloride, 0.4 mM of magnesium sulphate, 1.2 mM of potassium dihydrogen phosphate and 2.5 mM of calcium chloride) which is gassed with 95% oxygen and 5% carbon dioxide and maintained at 37° C. After incubation for 0.5 hour to 1 hour a further 20 mmol of potassium chloride is added followed after 0.25 hour to 0.5 hour by increasing concentrations of the test substance. The activity of the test substance is expressed as the IC50 value, which is the concentration of test substance producing a half-maximal reduction of the contractions caused by the potassium chloride.

Turning to `CC(=O)c1ccc2c(c1)C(c1cccc[n+]1[O-])CC(C)(C)O2` (centres unmarked) [Compound D, 2-(6-acetyl-3,4-dihydro-2,2-dimethyl-2H-1-benzopyran-4-yl)pyridine N-oxide], the IC50 turned out to be 560 ± 70 nM.
The figure for `CC1(C)Oc2ccc(C#N)cc2[C@@H](c2cccc[n+]2[O-])[C@@H]1O` (racemic) [Compound F, rac-trans-2-(6-cyano-3,4-dihydro-3-hydroxy-2,2-dimethyl-2H-1-benzopyran-4-yl)pyridine N-oxide] is 280 ± 30 nM.
The value for `CC1(C)C=C(c2cccc[n+]2[O-])c2cc(C#N)ccc2O1` [Compound B, 2-(6-cyano-2,2-dimethyl-2H-1-benzopyran-4-yl)pyridine N-oxide] was 38 ± 2 nM; that for `CC1(C)C=C(c2cc(C#N)ccc2O)c2cc(C#N)ccc2O1` [Compound H, 4-(5-cyano-2-hydroxyphenyl)-2,2-dimethyl-2H-1-benzopyran-6-carbonitrile] was 3100 ± 800 nM; that for `CC1(C)CC(c2cccc[n+]2[O-])c2cc(C#N)ccc2O1` (centres unmarked) [Compound A, 2-(6-cyano-3,4-dihydro-2,2-dimethyl-2H-1-benzopyran-4-yl)pyridine N-oxide] was 160 ± 20 nM.
The value for `CC1(C)CC(c2cccc[n+]2[O-])c2cc([N+](=O)[O-])ccc2O1` (centres unmarked) [Compound C, 2-(3,4-dihydro-2,2-dimethyl-6-nitro-2H-1-benzopyran-4-yl)pyridine N-oxide] was 14 ± 1 nM.
Consider `CCC1(C)C=C(c2cccc[n+]2[O-])c2cc(C#N)ccc2O1` (centres unmarked) [Compound G, 2-(6-cyano-2-ethyl-2-methyl-2H-1-benzopyran-4-yl)pyridine N-oxide], for which the IC50 is 19 ± 1.2 nM.
In the case of `CC1(C)C=C(c2ccc(-c3ccccc3)c[n+]2[O-])c2cc(C#N)ccc2O1` [Compound E, 2-(6-cyano-2,2-dimethyl-2H-1-benzopyran-4-yl)-5-phenylpyridine N-oxide], the IC50 worked out at 15 ± 0.5 nM.
